Measured values published in US20140377278A1, “Compositions and Methods for Assessing and Treating Inflammatory Diseases and Disorders” (Yale University, priority 2012, published 2014).

Tested on: ASC^−/− mice
Assay: DSS colitis in ASC-deficient mice after oral antimicrobial pretreatment
Type: in vivo
Conditions: oral antiviral, antifungal or antiparasitic treatment before DSS; weight loss compared (FIGS. 13C-13E)

SMILES | severity of colitis in ASC-deficient mice
C[C@@H]1[C@H](O)[C@@H](C)/C=C/C=C/C=C/C=C/C=C/C=C/C=C/[C@H](O[C@@H]2O[C@H](C)[C@@H](O)[C@H](N)[C@@H]2O)C[C@@H]2O[C@](O)(C[C@@H](O)C[C@@H](O)[C@H](O)CC[C@@H](O)C[C@@H](O)CC(=O)O[C@H]1C)C[C@H](O)[C@H]2C(=O)O [amphotericin, amphotericin B] | None of these treatments altered the severity of colitis
Nc1nc(O)c2ncn(COC(CO)CO)c2n1 [gancyclovir] | None of these treatments altered the severity of colitis
